Here are results for 10 compounds from ChEMBL document CHEMBL1201862, “PubChem BioAssay data set” (2004).

Among the test systems are OVCAR-5; NCI-H23; HOP-62; HL-60; SK-MEL-28; NCI-H522; SN12C; PC-3; A498; COLO 205; SK-MEL-5; MCF7; OVCAR-3; HOP-92; Malme-3M; HCC 2998; MDA-MB-435; MDA-N; SF-268; UACC-62.
What all share (test): NCI tumour cell line growth inhibition, 48 h

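Five compound concentrations were applied to cells in 96-well plates for 48 hours; endpoints were derived by simple linear interpolation of the resulting dose-response curve. At the GI50, growth is halved.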 Activity calls are given as the source filed them. Rule as the data show it: active = GI50 up to about 1.1 µM and inactive = higher.

As to `c1ccc2cc(CNCCOCCOCCNCc3ccc4ccccc4c3)ccc2c1`, the GI50 in the assay on OVCAR-5 was 1.9 µM (inactive); in the assay with NCI-H23, 2 µM (inactive); in the assay on HOP-62 it was 1.85 µM (inactive); in the assay on HL-60, 1.85 µM (inactive); in the assay on SK-MEL-28, 1.97 µM (inactive); in the assay with NCI-H522, 1.83 µM (inactive). Moreover, the GI50 in the assay on SN12C was 2.16 µM (inactive); in the assay with PC-3 it was 2.17 µM (inactive); in the assay with A498, 1.71 µM (inactive); in the assay on COLO 205, 1.48 µM (inactive); in the assay with SK-MEL-5, 2.39 µM (inactive); with MCF7, 1.79 µM (inactive). The GI50 in the assay on OVCAR-3 was 1.67 µM (inactive); in the assay on HOP-92, 1.52 µM (inactive); with Malme-3M, 1.76 µM (inactive); in the assay with HCC 2998, 0.208 µM (active); in the assay on MDA-MB-435, 1.8 µM (inactive); with MDA-N it was 1.65 µM (inactive). In addition, the results for the GI50 with SF-268 and in the assay on UACC-62 were 1.97 µM (inactive) and 2.06 µM (inactive), respectively.

With `CC1(C)CC(=O)/C(=C/C2CCNC2=S)C(=O)N1` (stereo not given), the GI50 with OVCAR-5, in the assay on NCI-H23, with HOP-62, in the assay with HL-60, in the assay on SK-MEL-28 and in the assay on NCI-H522 was > 100 µM (inactive) in each case. Further, the GI50 in the assay with SN12C is 82.4 µM (inactive); in the assay with PC-3, > 100 µM (inactive); in the assay with A498 it was > 100 µM (inactive); in the assay with COLO 205, > 100 µM (inactive); with SK-MEL-5, > 100 µM (inactive); with MCF7, > 100 µM (inactive). The GI50 with OVCAR-3, in the assay on HOP-92, in the assay on Malme-3M, in the assay on HCC 2998, in the assay on MDA-MB-435 and in the assay with MDA-N was > 100 µM (inactive) each time. In addition, the GI50 in the assay on SF-268 and in the assay on UACC-62 was > 100 µM (inactive) throughout.

For the compound `CCN(CC)Cc1ccc(Nc2c3ccccc3nc3ccccc23)cc1`, the GI50 was 2.17 µM (inactive) with OVCAR-5; 1.99 µM (inactive) in the assay on NCI-H23; 2.38 µM (inactive) in the assay on HOP-62; 2.79 µM (inactive) in the assay with HL-60; 1.61 µM (inactive) in the assay on SK-MEL-28; 1.41 µM (inactive) in the assay on NCI-H522. Also, the GI50 in the assay on SN12C was 2.31 µM (inactive); with PC-3 it was 1.59 µM (inactive); with A498, 3.09 µM (inactive); with COLO 205 it was 1.71 µM (inactive); with SK-MEL-5, 1.71 µM (inactive); in the assay with MCF7, 1.71 µM (inactive). The GI50 is 3.03 µM (inactive) with OVCAR-3; 2.79 µM (inactive) in the assay on HOP-92; 1.36 µM (inactive) in the assay with Malme-3M; 1.08 µM (active) in the assay on HCC 2998; 2.04 µM (inactive) in the assay on MDA-MB-435; 1.53 µM (inactive) with MDA-N. Moreover, the GI50 in the assay with SF-268 was 2.82 µM (inactive); in the assay on UACC-62 it was 1.81 µM (inactive).

As to `Cn1c([N+](=O)[O-])cnc1CN1CCN(CCO)CC1`, the GI50 with OVCAR-5, with NCI-H23, with HOP-62, in the assay on HL-60, in the assay with SK-MEL-28 and with NCI-H522 was > 100 µM (inactive) throughout. Moreover, the GI50 in the assay with SN12C, with PC-3, in the assay on A498, in the assay on COLO 205, with SK-MEL-5 and with MCF7 was > 100 µM (inactive) in each case. Also, the GI50 in the assay with OVCAR-3, in the assay with HOP-92, in the assay with Malme-3M, in the assay with HCC 2998, in the assay on MDA-MB-435 and in the assay on MDA-N was > 100 µM (inactive) in each case. The GI50 with SF-268 and with UACC-62 was > 100 µM (inactive) each time.

In the case of `CCOC(=O)/C(=C\NCC(OCC)OCC)c1nc2ccccc2[nH]1`, the GI50 is 48.6 µM (inactive) with OVCAR-5; 21.4 µM (inactive) in the assay on NCI-H23; 31.8 µM (inactive) with HOP-62; 23.9 µM (inactive) with HL-60; 26.8 µM (inactive) in the assay on SK-MEL-28; 21.4 µM (inactive) in the assay with NCI-H522. The GI50 is 39.2 µM (inactive) in the assay with SN12C; 24 µM (inactive) in the assay with PC-3; 48.6 µM (inactive) with A498; 16.5 µM (inactive) in the assay with COLO 205; 14.5 µM (inactive) in the assay on SK-MEL-5; 30.1 µM (inactive) with MCF7. Moreover, the GI50 with OVCAR-3 was 22 µM (inactive); with HOP-92 it was 35.6 µM (inactive); with Malme-3M it was 25.8 µM (inactive); in the assay with HCC 2998 it was 20.1 µM (inactive); in the assay with MDA-MB-435, 25 µM (inactive); with MDA-N it was 29 µM (inactive). Moreover, the GI50 was 32.6 µM (inactive) in the assay with SF-268 and 16.3 µM (inactive) in the assay with UACC-62.

Consider `O=c1c(C(c2ccc(/C=C/c3ccccc3)cc2)c2c(O)oc3cc(O)ccc3c2=O)c(O)oc2cc(O)ccc12`, for which the GI50 with OVCAR-5 is > 100 µM (inactive); with NCI-H23, > 100 µM (inactive); in the assay with HOP-62 it was > 100 µM (inactive); in the assay on HL-60, 27.5 µM (inactive); in the assay with SK-MEL-28, 11.3 µM (inactive); in the assay on NCI-H522, 52 µM (inactive). Also, the GI50 was 48.4 µM (inactive) in the assay on SN12C; > 100 µM (inactive) with PC-3; > 100 µM (inactive) with A498; > 100 µM (inactive) in the assay on COLO 205; 21.8 µM (inactive) with SK-MEL-5; 49.9 µM (inactive) in the assay on MCF7. The GI50 in the assay on OVCAR-3 was > 100 µM (inactive); in the assay with HOP-92 it was 75.2 µM (inactive); with Malme-3M it was > 100 µM (inactive); with HCC 2998, > 100 µM (inactive); in the assay on MDA-MB-435 it was 82.2 µM (inactive); in the assay on MDA-N it was 53.5 µM (inactive). Also, the results for the GI50 with SF-268 and in the assay on UACC-62 were 33.7 µM (inactive) and > 100 µM (inactive), respectively.

As to `CC1CC2OC(=O)C(C)C2CC2(C)C(OC3OC(CO)C(O)C(O)C3O)OCCC12` (stereo not given), the GI50 in the assay with OVCAR-5, with NCI-H23, with HOP-62, with HL-60, with SK-MEL-28 and with NCI-H522 was > 100 µM (inactive) in each case. The GI50 in the assay on SN12C, in the assay on PC-3, in the assay on A498, with COLO 205, in the assay with SK-MEL-5 and in the assay on MCF7 was > 100 µM (inactive) throughout. The GI50 with OVCAR-3, with HOP-92, in the assay on Malme-3M, in the assay with HCC 2998, in the assay on MDA-MB-435 and in the assay on MDA-N was > 100 µM (inactive) each time. The GI50 in the assay on SF-268 is > 100 µM (inactive); with UACC-62, 16.9 µM (inactive).

Consider `COc1ccc2nc3cc(Cl)ccc3c(NCCNC(=O)Cn3c(=O)n(C)c(=O)c4c3nc3c(c(=O)n(C)c(=O)n3C)[n+]4[O-])c2c1`, for which the GI50 in the assay with OVCAR-5 is > 72.8 µM (inactive); with NCI-H23, 21.2 µM (inactive); in the assay with HOP-62 it was 20.7 µM (inactive); in the assay on HL-60 it was > 100 µM (inactive); with SK-MEL-28 it was > 31.6 µM (inactive); with NCI-H522, 25.4 µM (inactive). Besides, the GI50 in the assay on SN12C was 36.7 µM (inactive); with PC-3, 38.4 µM (inactive); with A498, > 60.4 µM (inactive); in the assay with COLO 205, > 67.1 µM (inactive); in the assay with SK-MEL-5 it was 58.2 µM (inactive); with MCF7, 33 µM (inactive). Further, the GI50 in the assay with OVCAR-3 is 39.5 µM (inactive); with HOP-92 it was 28.1 µM (inactive); in the assay with Malme-3M it was 37.2 µM (inactive); with HCC 2998, 30.2 µM (inactive); in the assay with MDA-MB-435, > 45.7 µM (inactive); in the assay with MDA-N it was 46.3 µM (inactive). Moreover, the GI50 with SF-268 is 17.2 µM (inactive); in the assay on UACC-62, > 38.3 µM (inactive).

Turning to `CCOC(=O)C1(C(=O)OCC)C[C@]23OCCC(=O)[C@H]2[C@H]2C(=O)OC(C)(C)O[C@]23C1`, the GI50 with OVCAR-5, in the assay on NCI-H23, in the assay on HOP-62, in the assay on HL-60, in the assay with SK-MEL-28 and in the assay on NCI-H522 was > 100 µM (inactive) in each case. Moreover, the GI50 in the assay on SN12C, in the assay on PC-3, in the assay on A498, with COLO 205, in the assay with SK-MEL-5 and in the assay with MCF7 was > 100 µM (inactive) in each case. Besides, the GI50 in the assay on OVCAR-3, with HOP-92, in the assay on Malme-3M, in the assay on HCC 2998, with MDA-MB-435 and in the assay with MDA-N was > 100 µM (inactive) throughout. Further, the GI50 in the assay on SF-268 and with UACC-62 was > 100 µM (inactive) throughout.

With `c1ccc(COCC23CCN(Cc4ccccc4)C(CC(OCc4ccccc4)C2)S3)cc1` (stereo not given), the GI50 in the assay with OVCAR-5 is 38.2 µM (inactive); in the assay with NCI-H23, 31.4 µM (inactive); with HOP-62, 65.9 µM (inactive); in the assay on HL-60, 19.5 µM (inactive); with SK-MEL-28, > 100 µM (inactive); in the assay on NCI-H522, 29.7 µM (inactive). The GI50 was 57.9 µM (inactive) in the assay on SN12C; 31.8 µM (inactive) with PC-3; 39.3 µM (inactive) in the assay on A498; 35.2 µM (inactive) in the assay on COLO 205; 15.8 µM (inactive) in the assay on SK-MEL-5; 14.8 µM (inactive) with MCF7. The GI50 with OVCAR-3 was 97.5 µM (inactive); with HOP-92, 20.3 µM (inactive); with Malme-3M, 29.7 µM (inactive); in the assay with HCC 2998 it was 58.5 µM (inactive); with MDA-MB-435 it was 46 µM (inactive); in the assay with MDA-N it was 50.9 µM (inactive). The results for the GI50 with SF-268 and in the assay with UACC-62 were 73.3 µM (inactive) and 52.4 µM (inactive), respectively.
